Measurements taken from patent US7144919B1, “Polyoxyethylene-polyoxypropylene vitamin E and process for preparation thereof” (priority 2000, dated 2006).

Assay: Anti-oxidation activity: peroxide value of linoleic acid
Settings: sample 0.5% in linoleic acid, incubator 40° C.
Procedure: The novel POE-POP vitamin E of the present invention was examined for anti-oxidation activity, using linoleic acid. Readily being oxidized, linoleic acid can be used in determining the ability of an antioxidant of interest to inhibit the oxidation of linoleic acid. Used in this test was reagent-grade linoleic acid that comprised linoleic acid 85% and linolenic acid 15%.
POE-POP vitamin E prepared in Example 1, 2 or 3 was added in an amount of 0.5% to linoleic acid while vitamin E, vitamin E acetate, POE (12EO) vitamin E, POE (24 EO)-cholesterol, POE (20 EO) sorbitan monostearate, and POE (12 EO) nonylphenylether were also used as references. These samples were stored in an incubator maintained at 40° C. After two and ten days of incubation, a peroxide value was determined for each sample. In detail, in 1.0 g of each sample was placed in a 250 ml Erlenmeyer flask and dissolved with 10 ml of chloroform. To the solution, 15 ml of glacial acetic acid and 1 ml of saturated potassium iodide solution were added, and a stopper was put in the flask. After being vigorously shaken, the flask was allowed to stand in a dark place for 5 min. Thereafter, the flask was added with 75 ml of distilled water and vigorously shaken. Free iodine was titrated with a 0.01 N sodium thiosulfate solution, using a starch solution as an indicator. The point at which the solution became colorless was regarded as the end point. The peroxide value was calculated as follows:
[formula] wherein, S: Amount of 0.01 N sodium thiosulfate solution consumed by sample (ml) B: Amount of 0.01 N sodium thiosulfate solution consumed in blank test tube (ml) F: Factor of 0.01 N sodium thiosulfate solution

Row | Compound | Peroxide Values (Day 2) | Peroxide Values (Day 10)
1 | CC(=O)Oc1c(C)c(C)c2c(c1C)CCC(C)(CCC[C@H](C)CCC[C@H](C)CCCC(C)C)O2 (stereo partly shown) [Vitamin E acetate] | 26.2 | 122.3
2 | Vitamin E | 21.6 | 58.9
